# Records with an inconclusive call do not appear.
# Test system: nude mice, LX-1 lung xenograft intrarenal, tumor weight T/C
# Assay: NCI In Vivo Anticancer Drug Screen. Data for tumor model Human Lung LX-1 Xenograft (intrarenal inoculation) in NU/NU Swiss (nude) mice
# Conditions: endpoint: mean tumor weight change, higher = larger tumour
# Outline: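 In vivo, transplantable tumor; compound vs vehicle arms; tumor size measured; value = T/C.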
# [1] = dose: 300.0 mg/kg/injection, schedule: Q04DX003 (sc), vehicle: saline
# [2] = dose: 600.0 mg/kg/injection, schedule: Q04DX003 (sc), vehicle: saline
# [3] = dose: 1200.0 mg/kg/injection, schedule: Q04DX003 (sc), vehicle: saline
# [4] = dose: 2400.0 mg/kg/injection, schedule: Q04DX003 (sc), vehicle: saline
# [5] = dose: 100.0 mg/kg/injection, schedule: Q04DX003 (sc), vehicle: saline with Tween-80
# [6] = dose: 200.0 mg/kg/injection, schedule: Q04DX003 (sc), vehicle: saline with Tween-80
# [7] = dose: 400.0 mg/kg/injection, schedule: Q04DX003 (sc), vehicle: saline with Tween-80
# [8] = dose: 25.0 mg/kg/injection, schedule: Q04DX003 (sc), vehicle: Klucel (hydroxypropylcellulose) (HPC)
# [9] = dose: 50.0 mg/kg/injection, schedule: Q04DX003 (sc), vehicle: Klucel (hydroxypropylcellulose) (HPC)
# [10] = dose: 100.0 mg/kg/injection, schedule: Q04DX003 (sc), vehicle: Klucel (hydroxypropylcellulose) (HPC)
# [11] = dose: 200.0 mg/kg/injection, schedule: Q04DX003 (sc), vehicle: Klucel (hydroxypropylcellulose) (HPC)
# [12] = dose: 100.0 mg/kg/injection, schedule: Q04DX003 (sc), vehicle: saline
# [13] = dose: 50.0 mg/kg/injection, schedule: Q01DX010 (sc), vehicle: saline with Tween-80
# [14] = dose: 100.0 mg/kg/injection, schedule: Q01DX010 (sc), vehicle: saline with Tween-80
# [15] = dose: 150.0 mg/kg/injection, schedule: Q04DX003 (sc), vehicle: saline with Tween-80
# [16] = dose: 600.0 mg/kg/injection, schedule: Q04DX003 (sc), vehicle: saline with Tween-80
compound,measurement,setting,value
CC[C@]1(O)C[C@H]2CN(CCc3c([nH]c4ccccc34)[C@@](C(=O)OC)(c3cc4c(cc3OC)N(C=O)[C@H]3[C@@](O)(C(=O)OC)[C@H](OC(C)=O)[C@]5(CC)C=CCN6CC[C@]43[C@@H]65)C2)C1,T/C,"dose: 0.13 mg/kg/injection, schedule: Q01DX010 (sc), vehicle: saline",69 % of control
same,T/C,"dose: 0.25 mg/kg/injection, schedule: Q01DX010 (sc), vehicle: saline",102 % of control
same,T/C,"dose: 0.5 mg/kg/injection, schedule: Q01DX010 (sc), vehicle: saline",1 % of control
CCCCCC[C@@H](O)C/C=C\CCCCCCCC(=O)OCCO,T/C,[1],69 % of control
same,T/C,[2],90 % of control
same,T/C,[3],28 % of control
same,T/C,[4],50 % of control
Cc1cc(NS(=O)(=O)c2ccc(N=Nc3cc(N=Nc4ccc(S(=O)(=O)Nc5cc(C)nc(C)n5)cc4)c4c(NC(=O)C(Cl)Cl)cccc4c3OC(=O)C(Cl)Cl)cc2)nc(C)n1 (tested in a mixture with another compound),T/C,"dose: 600.0 mg/kg/injection, schedule: Q04DX003 (sc), vehicle: suspension in saline",95 % of control
same,T/C,"dose: 1200.0 mg/kg/injection, schedule: Q04DX003 (sc), vehicle: suspension in saline",115 % of control
same,T/C,"dose: 2400.0 mg/kg/injection, schedule: Q04DX003 (sc), vehicle: suspension in saline",121 % of control
C=C(C)[C@H]1CN[C@H](C(=O)O)[C@H]1CC(=O)O,T/C,"dose: 10.0 mg/kg/injection, schedule: Q04DX003 (sc), vehicle: saline",164 % of control
same,T/C,"dose: 20.0 mg/kg/injection, schedule: Q04DX003 (sc), vehicle: saline",97 % of control
C[C@@](O)(/C=C/[C@H]1CC=CC(=O)O1)[C@@H](C[C@@H](O)\C=C/C=C\C=C\CO)OP(=O)(O)O,T/C,"dose: 7.5 mg/kg/injection, schedule: Q04DX003 (sc), vehicle: other",160 % of control
same,T/C,"dose: 15.0 mg/kg/injection, schedule: Q04DX003 (sc), vehicle: other",168 % of control
Cc1ccc2c(c1)N=C(Nc1ccccc1)N=S2(C)=O (configuration not stated),T/C,[5],101 % of control
same,T/C,[6],90 % of control
same,T/C,[7],97 % of control
COc1cc2c(c(OC)c1OC)-c1ccc(OC)c(=O)cc1[C@@H](NC(=O)CCl)CC2,T/C,"dose: 1.25 mg/kg/injection, schedule: Q04DX003 (sc), vehicle: saline with Tween-80",76 % of control
same,T/C,"dose: 2.5 mg/kg/injection, schedule: Q04DX003 (sc), vehicle: saline with Tween-80",77 % of control
same,T/C,"dose: 5.0 mg/kg/injection, schedule: Q04DX003 (sc), vehicle: saline with Tween-80",42 % of control
O=C(C#Cc1ccccc1)c1ccccc1,T/C,"dose: 18.75 mg/kg/injection, schedule: Q04DX003 (sc), vehicle: Klucel (hydroxypropylcellulose) (HPC)",87 % of control
same,T/C,[8],111 % of control
same,T/C,"dose: 37.5 mg/kg/injection, schedule: Q04DX003 (sc), vehicle: Klucel (hydroxypropylcellulose) (HPC)",96 % of control
same,T/C,[9],90 % of control
same,T/C,"dose: 75.0 mg/kg/injection, schedule: Q04DX003 (sc), vehicle: Klucel (hydroxypropylcellulose) (HPC)",105 % of control
same,T/C,[10],113 % of control
same,T/C,"dose: 150.0 mg/kg/injection, schedule: Q04DX003 (sc), vehicle: Klucel (hydroxypropylcellulose) (HPC)",65 % of control
same,T/C,[11],81 % of control
C/C=C/C=C1/OC(C)=C(C(C)=O)C1=O,T/C,[5],107 % of control
same,T/C,[6],97 % of control
same,T/C,[7],110 % of control
same,T/C,"dose: 800.0 mg/kg/injection, schedule: Q04DX003 (sc), vehicle: saline with Tween-80",92 % of control
COc1cc2c(ccc3c4cc(OC)c(OC)cc4c[n+](C)c23)cc1O,T/C,[1],107 % of control
same,T/C,[2],79 % of control
same,T/C,[3],46 % of control
same,T/C,[4],65 % of control
Ic1ncnc2c1ncn2C1CCCO1 (configuration not stated),T/C,[11],168 % of control
same,T/C,"dose: 800.0 mg/kg/injection, schedule: Q04DX003 (sc), vehicle: Klucel (hydroxypropylcellulose) (HPC)",107 % of control
same,T/C,"dose: 1600.0 mg/kg/injection, schedule: Q04DX003 (sc), vehicle: Klucel (hydroxypropylcellulose) (HPC)",41 % of control
Cc1cn(C2CC3[O][Sn]([c]4ccccc4)([c]4ccccc4)[O]CC3O2)c(=O)[nH]c1=O (configuration not stated),T/C,[2],107 % of control
same,T/C,[4],47 % of control
Brc1c(NC2=NCCN2)ccc2nccnc12,T/C,"dose: 25.0 mg/kg/injection, schedule: Q04DX003 (sc), vehicle: saline",75 % of control
same,T/C,"dose: 50.0 mg/kg/injection, schedule: Q04DX003 (sc), vehicle: saline",55 % of control
same,T/C,[12],79 % of control
same,T/C,"dose: 200.0 mg/kg/injection, schedule: Q04DX003 (sc), vehicle: saline",69 % of control
O=C1C=CC(n2cc(F)c(=O)[nH]c2=O)O1 (configuration not stated),T/C,[8],57 % of control
same,T/C,[9],60 % of control
same,T/C,[10],46 % of control
Nc1ncnc2c1ncn2C1OC(COP(=O)(O)O)C(O)C1O (configuration not stated),T/C,"dose: 100.0 mg/kg/injection, schedule: Q01DX010 (sc), vehicle: saline",38 % of control
same,T/C,"dose: 200.0 mg/kg/injection, schedule: Q01DX010 (sc), vehicle: saline",78 % of control
same,T/C,"dose: 400.0 mg/kg/injection, schedule: Q01DX010 (sc), vehicle: saline",59 % of control
same,T/C,"dose: 800.0 mg/kg/injection, schedule: Q01DX010 (sc), vehicle: saline",67 % of control
Cn1cnc([N+](=O)[O-])c1[Se]c1nc(N)nc2nc[nH]c12,T/C,"dose: 12.5 mg/kg/injection, schedule: Q01DX010 (sc), vehicle: water",63 % of control
same,T/C,"dose: 25.0 mg/kg/injection, schedule: Q01DX010 (sc), vehicle: water",68 % of control
same,T/C,"dose: 50.0 mg/kg/injection, schedule: Q01DX010 (sc), vehicle: water",176 % of control
same,T/C,"dose: 100.0 mg/kg/injection, schedule: Q01DX010 (sc), vehicle: water",68 % of control
CC/C(=C(/CC)c1ccc(O)cc1)c1ccc(O)cc1,T/C,[13],106 % of control
same,T/C,[14],105 % of control
O=C(/C=C(\Cl)C(=O)NO)NO,T/C,[12],103 % of control
Brc1ccc(C[N+]23CN4CN(CN(C4)C2)C3)cc1,T/C,[15],91 % of control
same,T/C,"dose: 300.0 mg/kg/injection, schedule: Q04DX003 (sc), vehicle: saline with Tween-80",101 % of control
same,T/C,[16],76 % of control
Cc1c(N)nc(C(CC(N)=O)NCC(N)C(N)=O)nc1C(=O)NC(C(=O)NC(C)C(O)CC(=O)NC(C(=O)NC(OC1OC(C)C(N)C(O)C1O)C(O)c1nc(-c2nc(C(=O)NCCCC(N)CC(=O)NCCCNCCCCN)cs2)cs1)C(C)O)C(OC1OC(CO)C(O)C(O)C1OC1OC(CO)C(O)C(OC(N)=O)C1O)c1cnc[nH]1 (configuration not stated),T/C,"dose: 16.0 mg/kg/injection, schedule: Q04DX003 (sc), vehicle: saline",73 % of control
c1ccc2c(c1)nnn1c3cnccc3nc21,T/C,"dose: 3.12 mg/kg/injection, schedule: Q01DX010 (sc), vehicle: saline with Tween-80",59 % of control
same,T/C,"dose: 6.25 mg/kg/injection, schedule: Q01DX010 (sc), vehicle: saline with Tween-80",187 % of control
same,T/C,"dose: 12.5 mg/kg/injection, schedule: Q01DX010 (sc), vehicle: saline with Tween-80",72 % of control
same,T/C,"dose: 25.0 mg/kg/injection, schedule: Q01DX010 (sc), vehicle: saline with Tween-80",107 % of control
same,T/C,[13],160 % of control
same,T/C,[14],210 % of control
O=S(=O)(c1ccccc1)N1CN2CCN(C2)C1,T/C,[15],195 % of control
same,T/C,[16],106 % of control
same,T/C,"dose: 1200.0 mg/kg/injection, schedule: Q04DX003 (sc), vehicle: saline with Tween-80",156 % of control

# Source: PubChem BioAssay AID264 (DTP/NCI, 2004)
